The values that follow come from PubChem BioAssay AID1645866 (Buhrlage Lab, Dana-Farber Cancer Institute and Novartis …, 2021).

For this experiment, the target named is Ubiquitin carboxyl-terminal hydrolase 28 (Homo sapiens) (UniProt Q96RU2). The experiment is described as follows: Concentration-response biochemical assay confirming initial hits as inhibitors of ubiquitin-specific protease 28 (AID 1645866). As to conditions: purified USP28, ubiquitin-rhodamine fluorescence, 30 min.

Molecules are shown by their SMILES. Calls of active or inactive are those of the source.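 Rule for the calls: active = in confirmatory dose-response testing, peak deubiquitinase inhibition of 30% or more; inactive = the rest.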 Where only a bound is given, the exact number is not on record here.

Ubiquitin carboxyl-terminal hydrolase 28 (Homo sapiens), sequence (Q96RU2 whole entry, looked up): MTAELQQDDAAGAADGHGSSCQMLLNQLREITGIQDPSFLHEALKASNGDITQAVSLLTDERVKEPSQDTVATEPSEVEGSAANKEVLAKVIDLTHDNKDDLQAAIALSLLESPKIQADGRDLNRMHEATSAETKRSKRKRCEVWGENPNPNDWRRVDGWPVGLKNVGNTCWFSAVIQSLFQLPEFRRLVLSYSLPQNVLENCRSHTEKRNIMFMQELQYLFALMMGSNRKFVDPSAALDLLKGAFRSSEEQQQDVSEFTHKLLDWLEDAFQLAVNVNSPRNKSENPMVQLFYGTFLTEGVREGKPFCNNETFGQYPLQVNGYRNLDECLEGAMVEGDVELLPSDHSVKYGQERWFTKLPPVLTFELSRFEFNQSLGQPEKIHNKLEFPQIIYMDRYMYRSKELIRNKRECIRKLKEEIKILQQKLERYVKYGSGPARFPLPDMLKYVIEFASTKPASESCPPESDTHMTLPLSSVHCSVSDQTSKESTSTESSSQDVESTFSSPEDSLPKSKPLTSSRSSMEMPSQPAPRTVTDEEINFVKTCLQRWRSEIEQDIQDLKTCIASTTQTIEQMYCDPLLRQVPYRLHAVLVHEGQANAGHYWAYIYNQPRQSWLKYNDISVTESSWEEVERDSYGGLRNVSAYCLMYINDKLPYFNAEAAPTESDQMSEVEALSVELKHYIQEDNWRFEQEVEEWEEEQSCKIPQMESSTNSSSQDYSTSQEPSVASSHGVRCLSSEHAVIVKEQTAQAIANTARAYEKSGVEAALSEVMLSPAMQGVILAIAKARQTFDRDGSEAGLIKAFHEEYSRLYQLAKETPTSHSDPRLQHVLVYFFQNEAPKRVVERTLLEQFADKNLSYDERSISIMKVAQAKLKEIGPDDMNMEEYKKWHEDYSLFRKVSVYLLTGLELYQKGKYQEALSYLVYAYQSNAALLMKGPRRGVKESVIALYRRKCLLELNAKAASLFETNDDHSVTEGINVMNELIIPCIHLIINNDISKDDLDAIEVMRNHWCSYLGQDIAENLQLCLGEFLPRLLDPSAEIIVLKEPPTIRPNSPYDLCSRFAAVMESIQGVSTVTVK

One may read the IC50 as the concentration needed to halve the response being measured. For the molecule `Cc1ccc2c(c1)[C@]1(C(=O)N2)[C@@H](C(=O)c2ccccc2)[C@]2(C(=O)Nc3ccccc32)[C@@H]2CCCN21`, the IC50 is 23.3 µM.

With `CCCCNC(=O)c1cc2cccnc2n(Cc2ccccc2)c1=O`, the IC50 was > 50 µM (inactive).

As to `O=C(Nc1cc(F)c2nc(N3CCOCC3)ccc2c1)c1ccc(Br)o1`, the IC50 was 37.5 µM. Next, `COc1ccccc1-c1nc2c3c(C)c(C)n(-c4ccc(Br)cn4)c3ncn2n1`: 2.07 µM.

As for `O=c1[nH]cccc1NS(=O)(=O)c1ccc(F)cc1`, the IC50 is > 50 µM (inactive).

For `Cn1c2ccccc2c(=O)c2c(=O)n(Cc3ccccc3)c(-c3ccco3)nc21`, the IC50 is 1.23 µM. Next, `Cc1ccc(CNC(=O)c2cnc3ccccc3n2)cc1`: > 50 µM (inactive); `Cn1c(CN2CCCCCC2)nc2cc(NC(=O)c3ccccc3)ccc21`: > 50 µM (inactive). For `O=C(OCc1ccc(Br)cc1)c1ccc2ccccc2n1`, the IC50 was 1 µM.

`O=C(c1ccco1)N1CCCC2(C1)Nc1cccnc1NC2=NC1CCCC1` (centres undefined): the IC50 was > 50 µM (inactive). The figure for `Cc1cc(C)nc(-n2nc(C)c3c2NC(=O)CSC3c2ccccc2F)n1` (centres undefined) is 34.3 µM.

`Cc1ccc(Nc2nc(Nc3cccc(Cl)c3)nc3nccnc23)cc1`: the IC50 was > 50 µM (inactive). Next, `O=C(Nc1ccc(-c2cn3ccsc3n2)cc1)c1ccc(Cl)c([N+](=O)[O-])c1`: 1.53 µM; `CC1CCc2c(sc3nc(CC#N)[nH]c(=O)c23)C1` (centres undefined): > 50 µM (inactive). Take `COc1ccc(CC(=O)Nc2ccc3nc(N4CCOCC4)cc(C)c3c2)cc1`: the IC50 was 26 µM.

Take `Cc1cc(C)c(NC(=O)CSc2nc3nccnc3c(=O)n2Cc2ccccc2Cl)c(C)c1`: the IC50 was 3.33 µM.

Regarding `COc1cccc(/C=C/C(=O)Nc2ccc(C)c(Cl)c2)c1`, the IC50 was 5.79 µM. The figure for `COC(=O)c1cc(C#N)c(NCc2ccccc2)nc1C` is 45.2 µM; for `CCOC(=O)c1c(C)oc2nc(CSc3ccccc3)[nH]c(=O)c12` it is 17 µM; for `CCc1nc(-c2cc(C(=O)N3CCOCC3)c3ccccn23)cs1` it is > 50 µM (inactive). Next, `Cc1sc(-c2cccnc2)nc1OC(=O)c1ccc(Cl)c(Cl)c1`: > 50 µM (inactive). Next, `Cc1oc2ccc(NS(=O)(=O)c3ccc(F)cc3)cc2c1C(=O)OCc1ccccc1`: 9.05 µM. For `Fc1ccc(Nc2nc(Nc3cccc(F)c3)nc3nccnc23)cc1`, the IC50 is > 50 µM (inactive). The figure for `Cc1cc(C)n2nc(CNc3cccc(Cl)c3)nc2n1` is 16.4 µM; for `CCOc1ccc2[nH]c(=O)c(CN(C(=O)c3cccs3)C3CCCC3)cc2c1` it is 14.1 µM.

Turning to `COc1cccc(-n2nnc(C(=O)Nc3ccc(C)c(C)c3)c2C)c1`, the IC50 is 8.7 µM. `CCOc1ccc(-n2c(C)cc(/C=C(\C#N)c3nc4ccccc4[nH]3)c2C)cc1`: the IC50 was > 50 µM (inactive).

Turning to `CCOCCCn1c(SCC(=O)Nc2ccccc2C(F)(F)F)nc2ccccc2c1=O`, the IC50 was 17 µM. Next, `CCCC[C@@H](C)/C=C(C)/C=C(\C)C(=O)NC1=C[C@](O)(/C=C/C=C/C=C/C(=O)NC2=C(O)CCC2=O)[C@@H]2O[C@@H]2C1=O`: 2.56 µM; `CC1CC(=O)N(Cc2ccc([N+](=O)[O-])cc2)c2ccccc2S1` (centres undefined): 13.3 µM; `CC(=O)c1oc2nc3c(c(-c4ccc(Cl)cc4)c2c1N)CCc1ccccc1-3`: > 50 µM (inactive). `Cc1cc(=O)c2c(O)oc(O)c3c(O)cc(=O)c1c32`: the half-maximal inhibitory concentration (IC50) was 22 µM. Next, `O=C(Nc1ccc2c(c1)OCCO2)C1CCN(C(=O)c2cc(-c3cccnc3)n[nH]2)CC1`: 16.2 µM. The figure for `Cc1noc(C)c1CN1CC[C@H]2O[C@H](C(=O)NCc3ccco3)CC[C@H]21` is > 50 µM (inactive); for `O=C(NC1CCCC1)c1cccc(-c2ccc(N3CCCC3)nc2)c1` it is 8.14 µM; for `COc1cccc2c1C(=O)c1ccc3c(c1C2=O)C(=O)CC(C)(O)C3` (centres undefined) it is > 50 µM (inactive). Turning to `Fc1cnc(N2CC[C@H]3CO[C@H](CNc4ncccn4)[C@H]3C2)nc1`, the IC50 was > 50 µM (inactive). Next, `O=C(Nc1ccccc1)c1cn2c3c(cccc3c1=O)CC2`: 31.9 µM; `Cc1ccccc1C(=O)c1ccc(C(=O)NC2CCCCCC2)[nH]1`: 7.45 µM; `O=C(COC(=O)c1n[nH]c2ccccc12)Nc1ccc(N2CCCCC2)cc1`: 25.9 µM. The figure for `CC(=O)Nc1ccc(S(=O)(=O)NCc2ccc(C(=O)NCCc3ccc(Cl)cc3)cc2)cc1` is 1.77 µM. With `COc1cc(NC(=O)Cc2ccccc2)ccc1NC(=O)c1cc2ccccc2o1`, the IC50 is 3.01 µM. Consider `Cc1ccc(C(=O)Nc2ccc(S(=O)(=O)N3CCCC3)cc2)cc1Br`, for which the IC50 was 3.32 µM. Turning to `CCCCNC(=O)C1Sc2nnc(-c3ccccc3)n2NC1c1ccccc1` (centres undefined), the IC50 was 18.1 µM. Next, `Cn1ccnc1CN1C[C@H]2CCN(c3ncccn3)C[C@H]2C1`: > 50 µM (inactive); `Cn1c(=O)sc2cc(NC(=O)c3ccc(Br)cc3)ccc21`: 2.76 µM; `O=C(CN1C(=O)NC2(CCCCC2)C1=O)Nc1ccc([N+](=O)[O-])cc1`: 33.2 µM.

Take `CC(C)OC(=O)c1cc2c(ccn2C)n1CC(=O)N1CCN(C(=O)c2ccco2)CC1`: the IC50 is > 50 µM (inactive). Consider `CC(=O)N1CCc2cc(CNC(=O)Nc3cc(C)ccc3C)ccc21`, for which the IC50 was 46.7 µM.

For `Cc1cccc(CNC(=O)c2ccc(-c3nnc(-c4cccc(C)c4)o3)cc2)c1`, the 50% inhibitory concentration (IC50) is 17.7 µM. The figure for `CC(=O)c1ccc(NC(=O)C2CCN(c3cncnc3N3CCCC3)CC2)cc1` is 0.674 µM; for `CCN(Cc1ccccc1)S(=O)(=O)c1ccc(C(=O)Nc2ccc3c(c2)OCCO3)cc1` it is 5.98 µM. In the case of `CCCn1c(=O)c(-c2ccc(C(=O)NCc3ccc(OC)cc3)cc2)nc2cccnc21`, the IC50 was 1.8 µM. The figure for `CCCC(O)CCCCCCCc1cc(O)cc(O)c1C(=O)OC(CCC)CCCCCCCc1cc(O)cc(O)c1` (centres undefined) is 25.3 µM. The figure for `Cc1ccc(-c2nc(Cn3nnc(-c4nc(-c5ccccn5)no4)c3C)c(C)o2)cc1` is > 50 µM (inactive); for `Cc1cc(C(=O)N2CCN(C3CCN(Cc4ccc(Cl)o4)CC3)C(=O)C2)c(C)o1` it is > 50 µM (inactive).

`COc1cc(C)c2c(=O)c3c(oc2c1)C(=O)c1c(O)c(OC)cc(O)c1C3=O`: the IC50 was 1.56 µM. In the case of `Cc1ccccc1N1C(=O)/C(=C\c2cccn2C)c2ccccc2C1=O`, the IC50 was > 50 µM (inactive).

As for `Cc1ccc(C(=O)N2CCCC3(C2)Nc2cccnc2NC3=NC2CCCC2)s1` (centres undefined), the IC50 was > 50 µM (inactive).

On to `CN(Cc1ccccc1)S(=O)(=O)c1ccc2[nH]cc(C(=O)NCc3cccs3)c(=O)c2c1`, for which the concentration for half-maximal inhibition (IC50) was 1.52 µM. Next, `Cc1nc2ccc(NC(=O)COc3ccccc3[N+](=O)[O-])cc2s1`: 11.8 µM. The figure for `CCOC(=O)C1C(c2ccc(Br)cc2)C2(C(=O)c3ccccc3C2=O)C2C=Cc3ccccc3N12` (centres undefined) is > 50 µM (inactive). Next, `Cc1cccc(NC(=O)c2noc3c2CCc2sccc2-3)n1`: 16.8 µM; `FC(F)(F)c1cccc(N2CCN(c3nc4ccccc4n4nnnc34)CC2)c1`: > 50 µM (inactive); `COc1cccc(N2CCN(C(=O)C3CCN(c4nc(NC(C)=O)ns4)CC3)CC2)c1`: > 50 µM (inactive).

`Cc1cc(-c2nnc(SCC(=O)Nc3ccc(Br)c(C)c3)n2N)n[nH]1`: the IC50 was 15.6 µM. The figure for `CN=C(N)NCCC/C=C/CCCC(C)CC(C)C1OC(=O)/C=C/C(C)C(O)CC(O)C(C)C(O)CCC(C)C(O)CC2(O)OC(CC(OC(=O)CC(=O)O)CC(O)CC(O)C(C)C(O)/C=C/C1C)CC(O)C2O` (centres undefined) is 19.8 µM; for `CCNc1oc(-c2ccc(S(=O)(=O)N3CCCCC3)cc2)nc1C#N` it is 26.6 µM; for `Cc1nnc(Sc2cc(C(=O)NCCN3CCCC3)c3ccccc3n2)s1` it is > 50 µM (inactive). Next, `COc1cccc(NC(=O)c2ccc(-c3csc(C)n3)cc2)c1`: 6.69 µM; `Cc1sc2nc(CN3CCCC3)nc(NCCc3ccc(Cl)cc3)c2c1C`: > 50 µM (inactive); `CCc1cc2cc3c(cc2nc1SCC(=O)Nc1cccc(C(C)=O)c1)OCO3`: 2.58 µM. The figure for `CCCCc1ccc(-c2cc(C(=O)NCCN3CCOCC3)c3cc(Br)ccc3n2)cc1` is 14.9 µM; for `CC1=C(C(=O)Nc2ccccc2C)C(c2ccc(OCc3ccccc3F)cc2)n2ncnc2N1` (centres undefined) it is 21.6 µM; for `COc1ccccc1-c1nc(Cn2nnc(C(=O)Nc3cc(C)cc(C)c3)c2N)c(C)o1` it is 37.4 µM. Regarding `Cc1cc(C(=O)N2CCOCC2)c(C)n1-c1ccc(O)cc1`, the half-maximal inhibitory concentration (IC50) is 41.7 µM. The figure for `COc1cc(C#N)c(NC(=NCc2ccc(F)cc2)SC)cc1OC` is 22.5 µM. Next, `O=C(NCc1ccc2c(c1)OCO2)c1nc(-c2ccccc2)n(-c2ccccc2)n1`: > 50 µM (inactive); `O=C(Nc1cccc(S(=O)(=O)N2CCCC2)c1)c1ccc2c(=O)n3c(nc2c1)CCCCC3`: 21.2 µM; `Cc1c(-c2nsc(NC(=O)c3ccc(Cl)cc3)n2)nnn1-c1ccccc1F`: 5.34 µM. Next, `CCCc1nc2sc3c(NCCCN4CCOCC4)ncnc3c2c2c1CCC2`: 0.743 µM; `COCCNC(=O)Cn1c(=O)n(Cc2ccccc2)c(=O)c2c3c(sc21)CCC3`: 32.7 µM. Regarding `FC(F)(F)c1ccccc1CCN1CCc2nc3ncc(Cl)cc3cc2C1`, the IC50 is > 50 µM (inactive). In the case of `COc1ccc2c(C)c(CC(=O)N3CCC[C@H]3C(=O)O)c(=O)oc2c1C`, the concentration for half-maximal inhibition (IC50) was 44.6 µM. The figure for `Cc1ccc(C(=O)Nc2ccc3c(c2)C(=O)N(C)c2ccccc2O3)cc1C` is 2.75 µM; for `CCOc1ccccc1C(=O)Nc1ccc2c(c1)Sc1ncccc1C(=O)N2C` it is 41.6 µM; for `CCn1cc(-c2nc(-c3ccccn3)no2)c(=O)c2cc(F)ccc21` it is 26.5 µM. Turning to `Cc1ccc(C(=O)Nc2nc3n(n2)C(c2ccccc2)CC(=O)N3)cc1` (centres undefined), the IC50 was 19.4 µM.

For `O=C(c1cscn1)N1CCC2(CC1)CC1(CO2)Nc2ccccc2-n2cccc21` (centres undefined), the IC50 was > 50 µM (inactive).
